Measurements as given in patent US20080200338A1, “Heteroaroyl-Substituted Serineamides” (BASF Aktiengesellschaft, priority 2005, published 2008).

| melting point [°C] | Structure (SMILES) |
| --- | --- |
| 136 | C=CC(O)C(NC(=O)c1cn(C)nc1C(F)(F)F)C(=O)NC (racemic) [Compound 3.4, N-(2-Hydroxy-1-methylcarbamoylbut-3-enyl)-1-methyl-3-trifluoromethyl-1H-pyrazole-4-carboxamide] |
| 160 | C=CC(OC(C)=O)C(NC(=O)c1cn(C)nc1C(F)(F)F)C(=O)NC (racemic) [Compound 3.10, 1-{Methylcarbamoyl-[(1-methyl-3-trifluoromethyl-1H-pyrazol-4-carbonyl)amino]methyl}-allyl acetate] |
